Experimental data taken from US20200016136A1 (VIIV HEALTHCARE UK (NO. 5) LIMITED, priority 2017, published 2020).

Tested on: NL-RLuc virus (recombinant NL4-3 HIV with Renilla Luciferase gene)
Assay: Inhibition of HIV replication (NL-RLuc virus in MT-2 cells, luciferase readout)
Format: cell-based, Human immunodeficiency virus (HIV)
Details: MT2, 120 h
Method in brief: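 MT-2 cells infected with NL4-3-derived virus carrying Renilla luciferase in place of part of nef, grown 5 days with serial compound dilutions in RPMI 1640/10% FBS. Virus growth read as luciferase expression. EC50 from median effect equation, at least 2 experiments.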

Row | SMILES | EC50 [nM]
1 | CCC(C)(C)O[C@H](C(=O)O)c1c(C)ncc(-c2ccc3c(c2)CCN(Cc2c(C)cccc2Cl)C3)c1N1CCC(C)(C)CC1 [Example 53, (2S)-2-(5-{2-[(2-Chloro-6-methylphenyl)methyl]-1,2,3,4-tetrahydroisoquinolin-6-yl}-4-(4,4-dimethylpiperidin-1-yl)-2-methylpyridin-3-yl)-2-[(2-methylbutan-2-yl)oxy]acetic Acid] | 6
2 | Cc1nc(CN2CCC(C)(C)CC2)c(-c2ccc3c(c2)CCN(c2ncnc4c2oc2ccccc24)C3)c(N2CCC(C)(C)CC2)c1[C@H](OC(C)(C)C)C(=O)O [Example 161, (S)-2-(5-(2-(Benzofuro[3,2-d]pyrimidin-4-yl)-1,2,3,4-tetrahydroisoquinolin-6-yl)-4-(4,4-dimethylpiperidin-1-yl)-6-((4,4-dimethylpiperidin-1-yl)methyl)-2-methylpyridin-3-yl)-2-(tert-butoxy)acetic Acid] | 1
3 | Cc1nc(C)c([C@H](OC(C)(C)C)C(=O)O)c(N2CCC(C)(C)CC2)c1-c1ccc2c(c1)CCN(c1nccc(N3C4CCC3COC4)n1)C2 [Example 32, (2S)-2-(tert-Butoxy)-2-[4-(4,4-dimethylpiperidin-1-yl)-2,6-dimethyl-5-[2-(4-{3-oxa-8-azabicyclo[3.2.1]octan-8-yl}pyrimidin-2-yl)-1,2,3,4-tetrahydroisoquinolin-6-yl]pyridin-3-yl]acetic Acid] | 1
4 | Cc1nc(C)c([C@H](OC(C)(C)C)C(=O)O)c(N2CCC(C)(C)CC2)c1-c1ccc2c(c1)CCN(c1ncnc(N3CCC(O)CC3)n1)C2 [Example 61, (S)-2-(tert-Butoxy)-2-(4-(4,4-dimethylpiperidin-1-yl)-5-(2-(4-(4-hydroxypiperidin-1-yl)-1,3,5-triazin-2-yl)-1,2,3,4-tetrahydroisoquinolin-6-yl)-2,6-dimethylpyridin-3-yl)acetic Acid] | 2
5 | CC1(C)CCN(Cc2nc(Cl)c([C@H](OC(C)(C)C)C(=O)O)c(N3CCC(C)(C)CC3)c2-c2ccc3c(c2)CCN(c2ncnc4c2oc2ccccc24)C3)CC1 [Example 96, (S)-2-(5-(2-(Benzofuro[3,2-d]pyrimidin-4-yl)-1,2,3,4-tetrahydroisoquinolin-6-yl)-2-chloro-4-(4,4-dimethylpiperidin-1-yl)-6-((4,4-dimethylpiperidin-1-yl)methyl)pyridin-3-yl)-2-(tert-butoxy)acetic Acid] | 0.3
6 | Cc1nc(C)c([C@H](OC(C)(C)C)C(=O)O)c(N2CCC(C)(C)CC2)c1-c1ccc2c(c1)CCN(c1cncc(N3CCOCC3)n1)C2 [Example 74, (S)-2-(tert-Butoxy)-2-(4-(4,4-dimethylpiperidin-1-yl)-2,6-dimethyl-5-(2-(6-morpholinopyrazin-2-yl)-1,2,3,4-tetrahydroisoquinolin-6-yl)pyridin-3-yl)acetic Acid] | 1
7 | Cc1nc(C)c([C@H](OC(C)(C)C)C(=O)O)c(N2CCC(C)(C)CC2)c1-c1ccc2c(c1)CCN(c1nccc(N3CCC(CCO)CC3)n1)C2 [Example 81, (S)-2-(tert-Butoxy)-2-(4-(4,4-dimethylpiperidin-1-yl)-5-(2-(4-(4-(2-hydroxyethyl)piperidin-1-yl)pyrimidin-2-yl)-1,2,3,4-tetrahydroisoquinolin-6-yl)-2,6-dimethylpyridin-3-yl)acetic Acid] | 4
8 | CCOc1cc(N2CCc3cc(-c4c(C)nc(C)c([C@H](OC(C)(C)C)C(=O)O)c4N4CCC(C)(C)CC4)ccc3C2)ncn1 [Example 126, (S)-2-(tert-Butoxy)-2-(4-(4,4-dimethylpiperidin-1-yl)-5-(2-(6-ethoxypyrimidin-4-yl)-1,2,3,4-tetrahydroisoquinolin-6-yl)-2,6-dimethylpyridin-3-yl)acetic Acid] | 5
9 | Cc1nc(C)c([C@H](OC(C)(C)C)C(=O)O)c(N2CCC(C)(C)CC2)c1-c1ccc2c(c1)CCN(c1cc(N3CCC(N4CCCCC4)CC3)ncn1)C2 [Example 135, (S)-2-(5-(2-(6-([1,4′-Bipiperidin]-1′-yl)pyrimidin-4-yl)-1,2,3,4-tetrahydroisoquinolin-6-yl)-4-(4,4-dimethylpiperidin-1-yl)-2,6-dimethylpyridin-3-yl)-2-(tert-butoxy)acetic Acid] | 19
10 | Cc1ncc(-c2ccc3c(c2)CCN(c2nccc(-c4cnccn4)n2)C3)c(N2CCC(C)(C)CC2)c1[C@H](OC(C)(C)C)C(=O)O [Example 147, (S)-2-(tert-Butoxy)-2-(4-(4,4-dimethylpiperidin-1-yl)-2-methyl-5-(2-(4-(pyrazin-2-yl)pyrimidin-2-yl)-1,2,3,4-tetrahydroisoquinolin-6-yl)pyridin-3-yl)acetic Acid] | 2
11 | Cc1cccc(Cl)c1CN1CCc2cc(-c3c(NCCCN(C)C)nc(C)c([C@H](OC(C)(C)C)C(=O)O)c3N3CCC(C)(C)CC3)ccc2C1 [Example 9, (S)-2-(tert-Butoxy)-2-(5-(2-(2-chloro-6-methylbenzyl)-1,2,3,4-tetrahydroisoquinolin-6-yl)-6-((3-(dimethylamino)propyl)amino)-4-(4,4-dimethylpiperidin-1-yl)-2-methylpyridin-3-yl)acetic Acid] | 2
12 | CCOc1cc(N2CCc3cc(-c4c(C)nc(C)c([C@H](OC(C)(C)C)C(=O)O)c4N4CCC(C)(C)CC4)ccc3C2)nc(C)n1 [Example 65, (S)-2-(tert-Butoxy)-2-(4-(4,4-dimethylpiperidin-1-yl)-5-(2-(6-ethoxy-2-methylpyrimidin-4-yl)-1,2,3,4-tetrahydroisoquinolin-6-yl)-2,6-dimethylpyridin-3-yl)acetic Acid] | 19
13 | Cc1nc(C)c([C@H](OC(C)(C)C)C(=O)O)c(N2CCC(C)(C)CC2)c1-c1ccc2c(c1)CCN(c1cc(N3CCC(CO)CC3)ncn1)C2 [Example 120, (S)-2-(tert-Butoxy)-2-(4-(4,4-dimethylpiperidin-1-yl)-5-(2-(6-(4-(hydroxymethyl)piperidin-1-yl)pyrimidin-4-yl)-1,2,3,4-tetrahydroisoquinolin-6-yl)-2,6-dimethylpyridin-3-yl)acetic Acid] | 14
14 | Cc1nc(C)c([C@H](OC(C)(C)C)C(=O)O)c(N2CCC(C)(C)CC2)c1-c1ccc2c(c1)CCN(c1ccnc(N3C4CCCC3COC4)n1)C2 [Example 36, (2S)-2-(tert-Butoxy)-2-[4-(4,4-dimethylpiperidin-1-yl)-2,6-dimethyl-5-[2-(2-{3-oxa-9-azabicyclo[3.3.1]nonan-9-yl}pyrimidin-4-yl)-1,2,3,4-tetrahydroisoquinolin-6-yl]pyridin-3-yl]acetic Acid] | 3
15 | Cc1nc(CO)c(-c2ccc3c(c2)CCN(c2nccc(-c4cnccn4)n2)C3)c(N2CCC(C)(C)CC2)c1[C@H](OC(C)(C)C)C(=O)O [Example 165, (S)-2-(tert-Butoxy)-2-(4-(4,4-dimethylpiperidin-1-yl)-6-(hydroxymethyl)-2-methyl-5-(2-(4-(pyrazin-2-yl)pyrimidin-2-yl)-1,2,3,4-tetrahydroisoquinolin-6-yl)pyridin-3-yl)acetic Acid] | 2
16 | Cc1nc(C)c([C@H](OC(C)(C)C)C(=O)O)c(N2CCC(C)(C)CC2)c1-c1ccc2c(c1)CCN(c1cc(N3CCOCC3)ncn1)C2 [Example 119, (S)-2-(tert-Butoxy)-2-(4-(4,4-dimethylpiperidin-1-yl)-2,6-dimethyl-5-(2-(6-morpholinopyrimidin-4-yl)-1,2,3,4-tetrahydroisoquinolin-6-yl)pyridin-3-yl)acetic Acid] | 5
17 | Cc1nc(C)c([C@H](OC(C)(C)C)C(=O)O)c(N2CCC(C)(C)CC2)c1-c1ccc2c(c1)CCN(c1nccc(N3CCC(C(C)(C)O)CC3)n1)C2 [Example 70, (S)-2-(tert-Butoxy)-2-(4-(4,4-dimethylpiperidin-1-yl)-5-(2-(4-(4-(2-hydroxypropan-2-yl)piperidin-1-yl)pyrimidin-2-yl)-1,2,3,4-tetrahydroisoquinolin-6-yl)-2,6-dimethylpyridin-3-yl)acetic Acid] | 5
18 | CC1(C)CCN(c2c(-c3ccc4c(c3)CCN(c3ncnc5c3oc3ccccc35)C4)c(CNCC3CCOCC3)nc(Cl)c2[C@H](OC(C)(C)C)C(=O)O)CC1 [Example 111, (S)-2-(5-(2-(Benzofuro[3,2-d]pyrimidin-4-yl)-1,2,3,4-tetrahydroisoquinolin-6-yl)-2-chloro-4-(4,4-dimethylpiperidin-1-yl)-6-((((tetrahydro-2H-pyran-4-yl)methyl)amino)methyl)pyridin-3-yl)-2-(tert-butoxy)acetic Acid] | 0.7
19 | Cc1nc(C)c([C@H](OC(C)(C)C)C(=O)O)c(N2CCC(C)(C)CC2)c1-c1ccc2c(c1)CCN(c1nccc(N3CCN4CCC3CC4)n1)C2 [Example 44, (2S)-2-(tert-Butoxy)-2-{5-[2-(4-{1,4-diazabicyclo[3.2.2]nonan-4-yl}pyrimidin-2-yl)-1,2,3,4-tetrahydroisoquinolin-6-yl]-4-(4,4-dimethylpiperidin-1-yl)-2,6-dimethylpyridin-3-yl}acetic Acid] | 27
20 | Cc1nc(C)c([C@H](OC(C)(C)C)C(=O)O)c(N2CCC(C)(C)CC2)c1-c1ccc2c(c1)CCN(c1nccc(N3CCC3)n1)C2 [Example 19, (2S)-2-(5-{2-[4-(Azetidin-1-yl)pyrimidin-2-yl]-1,2,3,4-tetrahydroisoquinolin-6-yl}-4-(4,4-dimethylpiperidin-1-yl)-2,6-dimethylpyridin-3-yl)-2-(tert-butoxy)acetic Acid] | 1
21 | Cc1nc(C)c([C@H](OC(C)(C)C)C(=O)O)c(N2CCC(C)(C)CC2)c1-c1ccc2c(c1)CCN(c1cc(N3CCOCC3)cc(F)n1)C2 [Example 87, (S)-2-(tert-Butoxy)-2-(4-(4,4-dimethylpiperidin-1-yl)-5-(2-(6-fluoro-4-morpholinopyridin-2-yl)-1,2,3,4-tetrahydroisoquinolin-6-yl)-2,6-dimethylpyridin-3-yl)acetic Acid] | 5
22 | Cc1nc(C)c([C@H](OC(C)(C)C)C(=O)O)c(N2CCC(C)(C)CC2)c1-c1ccc2c(c1)CCN(c1cc(N3CCC(C(C)(C)O)CC3)ncc1F)C2 [Example 104, (S)-2-(tert-Butoxy)-2-(4-(4,4-dimethylpiperidin-1-yl)-5-(2-(5-fluoro-2-(4-(2-hydroxypropan-2-yl)piperidin-1-yl)pyridin-4-yl)-1,2,3,4-tetrahydroisoquinolin-6-yl)-2,6-dimethylpyridin-3-yl)acetic Acid] | 10
